Drawing on patent publication US20230067593A1, “NANOFORMULATIONS OF METHYL {4,6-DIAMINO-2-[5-FLUORO-1-(2-FLUOROBENZYL)-1H-PYRAZOLO[3,4-B]PYRIDIN-3 -YL]PYRIMIDIN-5-YL} CARBAMATE” (ADVERIO PHARMA GMBH, priority 2020, published 2023), this text covers d50 after milling for 1 compound.

A value given as a limit tells only on which side of the number the result lay.

This data set in a line: Screening experiments of nanosuspensions with different stabilizers (wet bead milling, planetary mill). It counts as physicochemical. To be noted: wet bead milling process according to Examples 1-3. As to the method: Most of the screening experiments of Example 1 were done in a planetary ball mill (PBM) of type Pulverisette 5. For sample preparation, the micronized compound of the formula (I) was predispersed in aqueous polymer surfactant solution and transferred into the grinding chamber (PET 23ml) which was filled with milling beads. The water contained in the solution was used as dispersing agent. As grinding media (0.4 - 0.6 mm) the Silibeads® zirconium oxide (yttrium stabilized) with a bulk density of 3.9 kg/l from Sigmund Lindner (Germany) were used. The milling beads fill level was 60% of the grinding chamber volume. Care was taken not to leave any air inclusions in the grinding chamber, as this would have a negative effect on the grinding process. The grinding time was 90 minutes at 400 rotations per minute. Four grinding chambers could be fed into the PBM per grinding operation. Thus, after separation of the grinding media, about 40 - 45 g suspension per grinding process could be produced.
The compound of formula (I) in crystalline form of modification I was produced according to example 13, method E of WO 2013/076168. Before nanomilling, the compound of formula (I) in crystalline form of modification I was micronized. For the screening experiments many different formulations were tested. For these experiments the duration of milling was 60 min. […]

Take `COC(=O)Nc1c(N)nc(-c2nn(Cc3ccccc3F)c3ncc(F)cc23)nc1N` [Vericiguat, methyl {4,6-diamino-2-[5-fluoro-1-(2-fluorobenzyl)-1H-pyrazolo[3,4-b]pyridin-3-yl]pyrimidin-5-yl}carbamate]: the d50 after milling is listed as less than 200 nm.
